Where two headings read alike, the source gives them in different places.
Legend:
β-glucosidase (G3ase) [1] = biological target: T1, β-glucosidase (G3ase) (Komagataeibacter sucrofermentans, UniProt O24749); experiment: Inhibition constants of G3ase inhibitors; type: biochemical, Acetobacter xylinum subsp. sucrofermentans BPR 2001
β-glucosidase (G3ase) [2] = biological target: T1, β-glucosidase (G3ase); experiment: Effect of metal ions and chemical agents on β-glucosidase (G3ase) activity; type: biochemical, Acetobacter xylinum subsp. sucrofermentans BPR 2001; settings: for activity at 1000 µM: read-out: Relative activity (%)
Method: After reaction at 30° C. for 2 hr, a reaction solution (300 μl) of a glucose-measuring kit (Glucose CII test Wako: Wako Pure Chemical Industries, Ltd.) was added to the mixture, and reacted for 15 min at a room temperature, followed by the determination of an amount of glucose based on absorbance at 505 nm.

β-glucosidase (G3ase) [3] = biological target: T1, β-glucosidase (G3ase); experiment: Reactivity of G3ase with cellulosic substrates (glucose produced); type: biochemical, Acetobacter xylinum subsp. sucrofermentans BPR 2001
β-glucosidase (G3ase) [4] = biological target: T1, β-glucosidase (G3ase); type: biochemical, Acetobacter xylinum subsp. sucrofermentans BPR 2001
[5] = substrate: OC[C@H]1O[C@@H](O[C@H]2[C@H](O)[C@@H](O)[C@H](O[C@H]3[C@H](O)[C@@H](O)C(O)O[C@@H]3CO)O[C@@H]2CO)[C@H](O)[C@@H](O)[C@@H]1O; experiment: purified protein, by the assay type; settings: other: substrate of G3ase
[6] = substrate: OC[C@H]1O[C@@H](O[C@H]2[C@H](O)[C@@H](O)[C@H](O[C@H]3[C@H](O)[C@@H](O)[C@H](O[C@H]4[C@H](O)[C@@H](O)C(O)O[C@@H]4CO)O[C@@H]3CO)O[C@@H]2CO)[C@H](O)[C@@H](O)[C@@H]1O; experiment: purified protein, by the assay type; settings: other: substrate of G3ase
[7] = substrate: OC[C@H]1O[C@@H](O[C@H]2[C@H](O)[C@@H](O)[C@H](O[C@H]3[C@H](O)[C@@H](O)[C@H](O[C@H]4[C@H](O)[C@@H](O)[C@H](O[C@H]5[C@H](O)[C@@H](O)[C@H](O[C@H]6[C@H](O)[C@@H](O)C(O)O[C@@H]6CO)O[C@@H]5CO)O[C@@H]4CO)O[C@@H]3CO)O[C@@H]2CO)[C@H](O)[C@@H](O)[C@@H]1O; experiment: purified protein, by the assay type; settings: other: substrate of G3ase
[8] = substrate: OC[C@H]1O[C@@H](O[C@H]2[C@H](O)[C@@H](O)[C@H](O[C@H]3[C@H](O)[C@@H](O)[C@H](O[C@H]4[C@H](O)[C@@H](O)[C@H](O[C@H]5[C@H](O)[C@@H](O)C(O)O[C@@H]5CO)O[C@@H]4CO)O[C@@H]3CO)O[C@@H]2CO)[C@H](O)[C@@H](O)[C@@H]1O; experiment: purified protein, by the assay type; type: biochemical, Acetobacter xylinum subsp. sucrofermentans BPR 2001; settings: other: substrate of G3ase
[9] = compound 1 mM, non-added sample = 100%
[10] = metal ions and chemical agents 1 mM

Molecule: O[C@H]1[C@H](O)[C@@H](O)[C@@H]2O[C@@H]2[C@@H]1O (relative stereo) [Conduritol-βepoxide]
- Ki (β-glucosidase (G3ase) [1]): 700 µM
- Type of inhibition (β-glucosidase (G3ase) [1]): Competitive
- Type of inhibition (β-glucosidase (G3ase) [1]; listed as conduritol-β epoxide): competitively inhibited

Molecule: OCCS [2ME, 2-mercaptoethanol]
- Relative activity (%) (β-glucosidase (G3ase) [2]; [9]): 106%
- Effect on β-glucosidase (G3ase) activity (in words) (β-glucosidase (G3ase) [2]; [10]): did not affect it adversely

Molecule: [Ca+2].[Cl-].[Cl-] [CaCl2]
- Relative activity (%) (β-glucosidase (G3ase) [2]; [9]): 100%

Molecule: O=S(=O)([O-])[O-].[Cu+2] [CuSO4]
- Relative activity (%) (β-glucosidase (G3ase) [2]; [9]): 115.7%

Molecule: O=C(O)CN(CCN(CC(=O)O)CC(=O)O)CC(=O)O [EDTA, ethylene diamine tetra acetate]
- Effect on β-glucosidase (G3ase) activity (in words) (β-glucosidase (G3ase) [2]): did not affect it adversely
- Relative activity (%) (β-glucosidase (G3ase) [2]): 100%

Molecule: O=S(=O)([O-])[O-].[Fe+2] [FeSO4]
- Relative activity (%) (β-glucosidase (G3ase) [2]; [9]): 91.6%

Molecule: OC[C@H]1O[C@@H](O[C@H]2[C@H](O)[C@@H](O)[C@H](O[C@H]3[C@H](O)[C@@H](O)C(O)O[C@@H]3CO)O[C@@H]2CO)[C@H](O)[C@@H](O)[C@@H]1O (some centres unmarked) [G3, cellotriose]
- percent ratio of produced glucose against total substrate added (β-glucosidase (G3ase) [3]; reaction time 2 hr): 13.1%
- percent ratio of produced glucose against total substrate added (β-glucosidase (G3ase) [3]; reaction time 24 hr): 17.5%

Molecule: OC[C@H]1O[C@@H](O[C@H]2[C@H](O)[C@@H](O)[C@H](O[C@H]3[C@H](O)[C@@H](O)[C@H](O[C@H]4[C@H](O)[C@@H](O)[C@H](O[C@H]5[C@H](O)[C@@H](O)[C@H](O[C@H]6[C@H](O)[C@@H](O)C(O)O[C@@H]6CO)O[C@@H]5CO)O[C@@H]4CO)O[C@@H]3CO)O[C@@H]2CO)[C@H](O)[C@@H](O)[C@@H]1O (some centres unmarked) [G6, cellohexaose]
- percent ratio of produced glucose against total substrate added (β-glucosidase (G3ase) [3]; reaction time 2 hr): 24.3%
- percent ratio of produced glucose against total substrate added (β-glucosidase (G3ase) [3]; reaction time 24 hr): 28.2%

Molecule: O=C1O[C@H](CO)[C@@H](O)[C@H](O)[C@H]1O [Glucono-δ-lactone]
- Ki (β-glucosidase (G3ase) [1]): 760 µM
- Type of inhibition (β-glucosidase (G3ase) [1]): Competitive
- Type of inhibition (β-glucosidase (G3ase) [1]; listed as glucon-o-δ-lactone): competitively inhibited

Molecule: [Cl][Hg][Cl] [HgCl2]
- Relative activity (%) (β-glucosidase (G3ase) [2]; [9]): 85.5%

Molecule: O=C(O)CI [IAA, iodo acetate]
- Relative activity (%) (β-glucosidase (G3ase) [2]; [9]): 126.5%
- Effect on β-glucosidase (G3ase) activity (in words) (β-glucosidase (G3ase) [2]; [10]): did not affect it adversely

Molecule: O=S(=O)([O-])[O-].[Mg+2] [MgSO4]
- Relative activity (%) (β-glucosidase (G3ase) [2]; [9]): 95.2%

Molecule: O=S(=O)([O-])[O-].[Mn+2] [MnSO4]
- Relative activity (%) (β-glucosidase (G3ase) [2]; [9]): 114.5%

Molecule: O=C1CCC(=O)N1Br [NBS, N-bromosuccinimide]
- activity at 1000 µM (β-glucosidase (G3ase) [2]; [9]): 0%
- Effect on β-glucosidase (G3ase) activity (in words) (β-glucosidase (G3ase) [2]; [10]): completely inactivated

Molecule: CCCCCCCCCCCCOS(=O)(=O)[O-].[Na+] [SDS, sodium dodecyl sulfate]
- activity at 1000 µM (β-glucosidase (G3ase) [2]; [9]): 31.3%

Molecule: O=S(=O)([O-])[O-].[Zn+2] [ZnSO4]
- Relative activity (%) (β-glucosidase (G3ase) [2]; [9]): 90.4%

Molecule: cellobiose [G2]
- degrading activity of G3ase compared to the other cellooligosaccharides (in words) (β-glucosidase (G3ase) [4]): very low
- ko (molecular activity) (β-glucosidase (G3ase) [4]; substrate of G3ase): 3.8 s⁻¹
- percent ratio of produced glucose against total substrate added (β-glucosidase (G3ase) [3]; reaction time 2 hr): 0.4%
- percent ratio of produced glucose against total substrate added (β-glucosidase (G3ase) [3]; reaction time 24 hr): 5.2%

B1: β-glucosidase (G3ase) (Komagataeibacter sucrofermentans) (protein)
chain: RHAHDGGGDQADARARQVLASMSLEDKMSLLFSVDGGGFNGSVAPPGGLGSAAYLRAPQGSGLPDLQISDAGLGVRNPAHIRRNGEAVSLPSGQSTASTWDMDMARQAGVMIGREAWQSGFNILLGGGADLTRDPRGGRNFEYAGEDPLQTGRMVGSTIAGVQSQHVISTLKHYAMNDLETSRMTMSADIDPVAMRESDLLGFEIALETGHPGAVMCSYNRVNDLYACENPYLLNKTLKQDWHYPGFVMSDWGATHSSARAALAGLDQESAGDHTDARPYFRTLLAADVKAGRVPEARINDMAERVVRALFAAGLVDHPAQRGPLDVVTDTLVAQKDEEEGAVLLRNQGNILPLSPTARIAVIGGHADAGVISGGGSSQVDPIGGEAVKGPGKKEWPGDPVYFPSSPLKAMQAEAPGARITYDPGTSIASAVRAARAADVVVVYATQFTFEGMDAPSMHLDDNADALITAVAAANPRTVVVMETGDPVLMPWNSSVAGVLEAWFPGSGGGPAIARLLFGKVAPSGHLTMTFPQAESQLAHPDIAGVTADNVFEMQFHTDQELVYDEGSDVGYRWFDRNHFKPLYPFGYGLTYTTFSTDGLKVTERHGQVTATFNVHNTGTRAGVDVPQVYVGLPDGGARRLAGWQRISLAPGESRQVSVQLEPRLLAHFDGKHDRWSVPSGTFRVWLASCATDDSQQTTMHLHGRTMAP
- Km [5]: 3730 µM
- kcat [5]: 29.8 s⁻¹
- Km [6]: 2100 µM
- kcat [6]: 38.9 s⁻¹
- Km [7]: 1310 µM
- kcat [7]: 31.0 s⁻¹
- Km [8]: 1490 µM
- kcat [8]: 32.1 s⁻¹
